Key:
[1] = test system: blood flow in coronary, mesenteric, hind limb and renal vascular beds; test: Example 8: vasodilator effects in different vascular beds (CBF, MBF, LBF, RBF) in awake dogs; assay type: in vivo; conditions: CVT-3146 2.5 μg/kg, ADO 250 μg/kg
Procedure: Example 8 employed a pharmaceutical composition consisting of an aqueous composition of 100 micrograms/mL CVT-3146 in 15% (w:v) propylene glycol and 100 mM phosphate buffer at pH 7 with 0.1% EDTA. The formulation was stored in type I glass vials at 5 mL per vial.
In this study the vasodilator effects of CVT-3146 were compared to those of ADO in different vascular beds in awake dogs. Dogs were chronically instrumented for measurements of the blood flow in coronary (CBF), mesenteric (MBF), hind limb (LBF), and renal (RBF) vascular beds, and hemodynamics.

[2] = test system: heart rate (HR) and blood pressure (BP); test: Example 5: heart rate, blood pressure and plasma catecholamines after i.v. bolus in awake rats (sympathoexcitation); assay type: in vivo; conditions: in the presence of hexamethonium 10 mg/kg, n=5
Procedure: The present study was carried out to determine whether CVT-3146, a selective A2A adenosine receptor agonist, causes sympathoexcitation.
CVT (0.31 μg/kg-50 μg/kg) was given as a rapid i.v. bolus to awake rats and heart rate (HR) and blood pressure (BP) were monitored. CVT-3146 caused an increase in BP and systolic pressure (SP) at lower doses while at higher doses there was a decrease in BP and SP. […] The increase in HR was evident at the lowest dose of CVT at which there was no appreciable decrease in BP. ZM241385 (30 μg/kg, N=5), an A2A receptor antagonist, attenuated the decrease in BP (CVT-3146: 14±3%, ZM: 1±1%) and the increase in HR (CVT: 27±3%, ZM: 18±3%) caused by CVT-3146. Pretreatment with metoprolol (MET, 1 mg/kg, n=5), a beta-blocker, attenuated the increase in HR (CVT: 27±3%, MET: 15±2%), but had no effect on hypotension caused by CVT-3146. In the presence of hexamethonium (HEX, 10 mg/kg, n=5), a ganglionic blocker, the tachycardia was prevented (CVT: 27±3%, HEX: −1±2%), but BP was further reduced (CVT: −11±2%, HEX: −49±5%).

Compound | duration for CBF above 2-fold of the baseline [1] [s] | change in BP caused by CVT-3146 [2] [%] | increase in HR (tachycardia) caused by CVT-3146 [2] [%]
Nc1ncnc2c1ncn2[C@@H]1O[C@H](CO)[C@@H](O)[C@H]1O [adenosine, reference compound] | 16 ± 3 |  | 
C[N+](C)(C)CCCCCC[N+](C)(C)C [hexamethonium, reference compound] |  | −49±5 | −1±2

Reference: US9289446B2, “Myocardial perfusion imaging methods and compositions” (GILEAD SCIENCES, INC., priority 2002, dated 2016)
